Data published in publication PMC10349921 (Bioorganic & medicinal chemistry, 2022).

Biological target: human galectin 3 (Homo sapiens, UniProt P17931)
Assay: SPR analysis of binding of glycan ligands to immobilized human Gal-3
Settings: for Relative affinity: calculated relative to the free lactose

Chain of human galectin 3 (P17931 whole entry): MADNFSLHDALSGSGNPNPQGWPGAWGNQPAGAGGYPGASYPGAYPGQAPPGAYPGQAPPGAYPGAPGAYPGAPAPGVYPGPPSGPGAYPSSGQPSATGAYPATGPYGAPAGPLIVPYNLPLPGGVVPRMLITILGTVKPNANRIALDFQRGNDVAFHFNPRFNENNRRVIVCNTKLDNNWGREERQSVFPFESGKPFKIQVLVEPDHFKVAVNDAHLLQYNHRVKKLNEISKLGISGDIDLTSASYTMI

| Relative affinity | EC50 (SPR, Gal-3 immobilized on CM5 chip, ligand as analyte, 25 °C) | enhanced relative affinity (per glycan ligand) in comparison with free lactose (SPR, per glycan ligand) | Relative affinity per unit (calculated for each sugar unit on cyclodextrin, relative to free lactose) | Compound |
| --- | --- | --- | --- | --- |
| < 1.47 |  |  |  | [N-]=[N+]=NCCOCCOCCO[C@@H]1O[C@H](CO)[C@@H](O[C@@H]2O[C@H](CO)[C@H](O)[C@H](O)[C@H]2O)[C@H](O)[C@H]1O [mono Lac (3)] |
| 1070 | 1370 ± 390 nM | 153 fold | 153 | β-Cyclodextrin-GalNAc [CD-Tn (16)] |
| < 1.47 |  |  |  | CC(=O)N[C@H]1[C@@H](OCCOCCOCCN=[N+]=[N-])O[C@H](CO)[C@H](O)[C@@H]1O [mono Tn (1), 2-(2-(2-Azido)ethoxy)ethyl-2-actamido-2-desoxy-α-D-gal-actopyranoside] |
| < 1.47 |  |  |  | CC(=O)N[C@H]1[C@@H](OCCOCCOCCN=[N+]=[N-])O[C@H](CO)[C@H](O)[C@@H]1O[C@@H]1O[C@H](CO)[C@H](O)[C@H](O)[C@H]1O [mono TFD (2), 2-(2-(2-Azido)ethoxy)ethyl-2-actamido-2-desoxy-3-O-[-β-D-galactopyranosyl]-α-D-galactopyranoside] |
